# From patent US20230414759A1, “NOVEL CYCLIC PEPTIDES BASED ON NANOBIOSTRUCTURAL CONTROL, PEPTIDESOMES WITH CORE/SHELL STRUCTURE COMPRISING SAME, AND USES THEREOF” (UIF (University Industry Fpimdatopm), Yonsei University, priority 2022, published 2023)
# Key:
# [1] = test system: SCC7 cells; assay: Photodynamic killing of cancer cells, MTT assay after laser irradiation; assay type: cell-based; settings: 24 hours, IR laser 671 nm 1.59 J/cm^2, peptidesome in DW
# Description: SSC7 (squamous cell carcinoma 7) cells were treated with free Pa or the coassembled peptidesome of Example 4-6d (R6:RGD2<-Pa) (1:9) at 30 μM for 24 hours, followed by infrared (IR) laser (671 nm) irradiation at 1.59 J/cm^2. Cytotoxicity as a measure of the photodynamic killing of the cancer cells was determined by MTT assay.
# As the samples, 2 μg/mL of free Pa, 2 μg/mL of the coassembled peptidesome of Example 4-6d (R6:RGD2<-Pa) (1:9) (G&G) and 2 μg/mL of the coassembled peptidesome of Example 4-6d (R6:RGD2<-Pa) (1:9) (DW) were used. DW means that distilled water was used instead of the G&G solution.
# [2] = test system: SCC7 cells; assay: Cellular uptake by CLSM and flow cytometry (FACS); assay type: cell-based; settings: 2 μg/mL, 4 hours
# Description: Analysis of intracellular delivery efficiency and FACS in vitro Cellular uptake of materials in SCC7 cells was analyzed based on the intrinsic fluorescence of Pa via CLSM (LSM700, Carl Zeiss, Germany) and flow cytometry (FACS Canto II, BD Biosciences, Bedford, MA, USA). SCC7 cells were seeded onto a 24-well plate at a density of 5×10^4 and incubated overnight. Then, […] of a sample was added to […] of a culture medium for each well. The cells were treated with the sample for 4 hours. Then, the sample was removed and the cells were washed. For cell imaging, cell nuclei were stained with Hoechst 33342.
# SCC7 cells were seeded in a 24-well plate at a density of 5×10^4 and incubated overnight. Then, […] of the sample was added to […] of a culture medium. The cells were treated with the sample for 4 hours, followed by removal of the sample and washing. For cell imaging, the cell nuclei were stained with Hoechst 33342. The uptake of materials by the SCC7 cells was analyzed based on the intrinsic fluorescence of Pa via CLSM (LSM700, Carl Zeiss, Germany) and flow cytometry (FACS Canto II, BD Biosciences, Bedford, MA, USA).
# As the samples, 2 μg/mL of free Pa, 2 μg/mL of the coassembled peptidesome of Example 4-6d (R6:RGD2<-Pa) (1:9) (G&G) and 2 μg/mL of the coassembled peptidesome of Example 4-6d (R6:RGD2<-Pa) (1:9) (DW) were used. […]
# [3] = test system: SCC7 cell-derived cancer; assay: In-vivo antitumor efficacy (PDT) in xenograft mouse model; settings: after 14 days
# Description: SCC7 tumor-bearing mouse models were prepared similarly to the biodistribution analysis. When the tumor volume reached approximately 50 mm^3, the sample was intravenously injected into the xenograft mice. 3 hours after the sample injection, NIR laser (671 nm) was irradiated to the tumor site with a power of 0.53 W/cm^2 for 15 minutes, and the same sample injection and NIR irradiation were repeated on the next day. The tumor volume and body weight were recorded every two days. At the end of the therapy, major organs and tumors were dissected for histological analysis. […]
# Squamous cell carcinoma 7 (SSC7) cells were cultured in an RPMI 1640 medium containing 10% FBS, 1% L-glutamine, 1% penicillin, streptomycin, etc. in a 37° C. incubator maintained at 5% carbon dioxide. The cultured cells were detached from the bottom of the flask using trypsin/EDTA and cell viability was evaluated by trypan blue exclusion assay. […]
# After the injection of the sample to each group, tumor volume and body weight were recorded 2 days, 4 days, 6 days, 8 days, 10 days, 12 days and 14 days later. […] The organs and cancer tissues were fixed, prepared into cryosections, stained with hematoxylin and eosin (H&E) and observed with a fluorescence microscope (Axiolmager A1, Zeiss, Germany).
# [4] = cited from earlier work
# [5] = Average hydrodynamic diameter of peptidesomes by DLS at different temperatures; assay type: physicochemical; settings: distilled water, 20-40° C.
# Description: The size of self-assembled nanoparticles (SNPs) was analyzed by a dynamic light scattering size distributor (particle size & zeta potential analyzer, ELS-1000ZS, Otsuka Electronics, Japan) using a UV-transparent cuvette having a path length of 1 cm. The secondary structure of the cyclic peptides of SPNs was analyzed using a Chirascan circular dichroism spectrometer equipped with a Peltier temperature controller (Applied Photophysics, UK). The CD (circular dichroism) spectra of samples were analyzed in a range of 190-260 nm using a cuvette having a path length of 2 mm. The molar residue ellipticity of the samples was calculated per amino acid residue. All mouse experiments were conducted under an animal protocol approved by the Catholic University of Korea on Laboratory Animal Care (2020-0359-05).
# It was confirmed from the foregoing experiment that the cyclic peptides prepared in Examples 2-1 to 2-3 form vesicular self-assembled structure when stored in distilled water (DW). The average hydrodynamic diameter (Dn) of the self-assembled structures was measured by dynamic light scattering (DLS) at different temperatures (20° C., 30° C., 40° C.).
average diameter of peptidesome (DLS) [5],Molecule,PDT effect (cell viability after laser irradiation) [1],cell internalization efficiency of free Pa relative to the coassembled peptidesome [2],"weight of the excised tumor ([3]; 2 mg/kg, tail vein, NIR laser)",excised tumor weight of free Pa group relative to peptidesome<-Pa(G&G) group [3],water solubility [4]
–,pheophorbide a [free Pa],dose-dependent PDT effect,5 fold,"1,222 mg",approximately 3 times,14 µg/mL
99-127 nm,CCCCCCCCCCCC(=O)N[C@H]1CCCCNC(=O)[C@H](Cc2c[nH]c3ccccc23)NC(=O)CCC(=O)NCCOCCOCCNC(=O)[C@H](CCCNC(=N)N)NC(=O)[C@H](CCCNC(=N)N)NC(=O)CCC(=O)NCCOCCOCCNC(=O)[C@H](Cc2c[nH]c3ccccc23)NC1=O [Example 2-1],–,–,–,–,–
